Molecules are shown by their SMILES.

What is called Kd is the concentration at which binding is half-saturated. Higher therefore signals weaker binding.

Format in all cases: binding
Test [1] addresses T1, HDAC2 (Homo sapiens (Human), UniProt Q92769). Description: Reporter displacement assay (HDAC2). The note with it: reporter probe displacement, Cheng Prusoff. Here is the method:
HDAC2 containing a C-terminal HIS-Tag (Proteros) and fluorescently-labeled anti-HIS-antibody are diluted in one vial in assay buffer 50 mM Tris, pH 8.0, 1 mM DTT, 150 mM NaCl, and 0.01% Tween20. Components are pre-incubated for 30 min, then a small volume of reporter probe (Proteros) is added from a highly concentrated stock and incubation is continued for another 30 min. Final concentrations after adding the reporter probe amount to 20 nM HDAC2, 4 nM antibody, and 180 nM probe.
Ten μl/well of pre-formed complex are transferred into 384 well assay plates (Corning). Compounds to be profiled are serially diluted from […] in DMSO and 60 nl are added to assay plates by pintool transfer (CybiWell, Cybio). Fluorescence intensity signal is read after 4 h in a Pherastar FS (BMG Labtech) at 337/665 nm.
For Kd determination, percent probe displacement values are calculated for each compound concentration and plotted against the compound concentration. IC50-like values (corresponding to 50% probe displacement) are calculated using standard fitting algorithms. Since the reporter probe is used at a concentration reflecting its own Kd value, compound Kd values can be calculated according to the Cheng Prusoff equation.
In the table, “A” indicates a Kd value of less than 0.1 μM; “B” a Kd value of between 0.1 μM and 0.5 μM; “C” a Kd value of greater than 0.5 μM and less than or equal to 5.0 μM; and “D” a Kd value of greater than 5.0 μM.

The target in a further test is HDAC1 (Homo sapiens (Human), UniProt Q13547). The test is described as follows: Reporter displacement assay (HDAC1). Particulars: for Kd: reporter probe displacement, Cheng Prusoff. Here is the method:
[The procedure below names another target; the source lists this target under the same test.] HDAC2 containing a C-terminal HIS-Tag (Proteros) and fluorescently-labeled anti-HIS-antibody are diluted in one vial in assay buffer 50 mM Tris, pH 8.0, 1 mM DTT, 150 mM NaCl, and 0.01% Tween20. Components are pre-incubated for 30 min, then a small volume of reporter probe (Proteros) is added from a highly concentrated stock and incubation is continued for another 30 min.
Ten μl/well of pre-formed complex are transferred into 384 well assay plates (Corning). Compounds to be profiled are serially diluted from […] in DMSO and 60 nl are added to assay plates by pintool transfer (CybiWell, Cybio).
For Kd determination, percent probe displacement values are calculated for each compound concentration and plotted against the compound concentration. […] Since the reporter probe is used at a concentration reflecting its own Kd value, compound Kd values can be calculated according to the Cheng Prusoff equation.

The target of test [2] is T1, HDAC2. Description: Reporter displacement assay (HDAC2).

T1 sequence (Q92769 whole entry): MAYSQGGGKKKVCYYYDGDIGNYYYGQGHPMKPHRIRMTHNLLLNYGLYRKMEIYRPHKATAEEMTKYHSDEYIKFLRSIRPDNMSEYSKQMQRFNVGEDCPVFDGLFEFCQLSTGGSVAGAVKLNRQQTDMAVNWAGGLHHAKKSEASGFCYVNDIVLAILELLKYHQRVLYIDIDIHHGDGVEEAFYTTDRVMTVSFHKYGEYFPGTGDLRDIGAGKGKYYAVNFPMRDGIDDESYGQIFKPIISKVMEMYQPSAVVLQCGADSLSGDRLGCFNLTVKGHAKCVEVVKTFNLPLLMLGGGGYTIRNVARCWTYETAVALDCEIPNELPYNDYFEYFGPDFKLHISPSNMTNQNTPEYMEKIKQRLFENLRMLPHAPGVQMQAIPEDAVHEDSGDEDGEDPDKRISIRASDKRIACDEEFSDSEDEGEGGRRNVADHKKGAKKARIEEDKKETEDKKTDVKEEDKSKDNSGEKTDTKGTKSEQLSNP
HDAC1, sequence (Q13547 whole entry): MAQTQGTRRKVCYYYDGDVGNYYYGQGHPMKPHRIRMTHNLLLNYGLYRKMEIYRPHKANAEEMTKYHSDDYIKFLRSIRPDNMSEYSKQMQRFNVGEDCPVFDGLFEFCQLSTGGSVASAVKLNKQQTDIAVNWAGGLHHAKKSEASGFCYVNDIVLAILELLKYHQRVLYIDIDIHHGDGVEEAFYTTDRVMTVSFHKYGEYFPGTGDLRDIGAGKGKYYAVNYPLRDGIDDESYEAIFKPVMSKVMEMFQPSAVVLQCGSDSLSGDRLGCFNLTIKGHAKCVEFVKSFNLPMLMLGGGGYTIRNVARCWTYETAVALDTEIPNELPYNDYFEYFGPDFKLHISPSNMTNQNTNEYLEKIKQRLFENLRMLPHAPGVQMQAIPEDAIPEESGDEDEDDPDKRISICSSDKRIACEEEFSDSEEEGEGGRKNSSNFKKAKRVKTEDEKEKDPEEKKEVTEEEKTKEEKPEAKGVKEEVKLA

On to `Nc1ccc(-c2ccccn2)cc1NC(=O)N1Cc2ccncc2C1` [Compound 146], for which the Kd at HDAC2 [1] is 500 to 5000 nM; on HDAC1, 100 to 500 nM. The residence time at HDAC1 was 540 min; on HDAC2 [2] it was 1280 min.

Consider `Nc1ccc(-c2ccc(F)cc2)cc1NC(=O)N1CC2(CCOCC2)C1` [Compound 148], for which the Kd on HDAC2 [1] and on HDAC1 was 500 to 5000 nM in each case. For the same molecule, the results for the residence time at HDAC1 and at HDAC2 [2] were 233 min and 809 min, respectively.

Turning to `Nc1ccc(-c2ccc(Cl)cc2)cc1NC(=O)N1Cc2ccncc2C1` [Compound 130], the Kd at HDAC2 [1] was 100 to 500 nM; at HDAC1, less than 100 nM. Besides, the residence time is 1080 min at HDAC1 and 1300 min at HDAC2 [2].

For `Nc1ccc(-c2ccc(F)cc2)cc1NC(=O)N1CC2CN(C3COC3)CC2C1` (stereo not drawn) [Compound 126], the Kd at HDAC2 [1] was 100 to 500 nM; on HDAC1, less than 100 nM. Also, the residence time came to 937 min on HDAC1 and 2620 min at HDAC2 [2].

On to `Nc1ccc(-c2ccncc2)cc1NC(=O)c1nc2c(s1)CCNC2` [Compound 174], for which the Kd on HDAC2 [1] and on HDAC1 was less than 100 nM in each case. Also, the residence time at HDAC1 was 1350 min; on HDAC2 [2] it was 1940 min.

Turning to `Nc1ccc(-c2ccncc2)cc1NC(=O)c1cn2c(n1)CNCC2` [Compound 123], the Kd at HDAC2 [1] and on HDAC1 was 100 to 500 nM each time. Also, the residence time is 1050 min on HDAC1 and 1610 min at HDAC2 [2].

For the molecule `Nc1ccc(-c2ccncc2)cc1NC(=O)N1CC2CCC(C1)O2` [Compound 105], the Kd at HDAC2 [1] and on HDAC1 was greater than 5000 nM in each case.

For `Nc1ccc(-c2ccc(F)cc2)cc1NC(=O)N1CCC2(CC1)CCN(C1COC1)C2` [Compound 164], the dissociation constant Kd at HDAC2 [1] and on HDAC1 was 100 to 500 nM in each case. Moreover, the residence time was 1430 min on HDAC1 and 2210 min at HDAC2 [2].

As for `Nc1ccc(-c2ccc(F)cc2)cc1NC(=O)N1CC2CCNCC2C1` (stereo not drawn) [Compound 170], the Kd at HDAC2 [1] and at HDAC1 was 500 to 5000 nM each time. For the same molecule, the residence time at HDAC1 came to 342 min; on HDAC2 [2] it was 2160 min.

For `Nc1ccc(-c2ccc(F)cc2)cc1NC(=O)N1CC2CCC(C1)N2` [Compound 113], the Kd on HDAC2 [1] and on HDAC1 was greater than 5000 nM each time.

Turning to `Nc1ccc(-c2ccc(C(F)(F)F)cc2)cc1NC(=O)N1Cc2ccncc2C1` [Compound 140], the Kd on HDAC2 [1] and at HDAC1 was 500 to 5000 nM each time. The results for the residence time at HDAC1 and on HDAC2 [2] were 34 min and 341 min, respectively.

On to `CC(C)COC(=O)N1CC2CN(C(=O)Nc3cc(-c4ccc(F)cc4)ccc3N)CC2C1` (stereo not drawn) [Compound 157], for which the dissociation constant Kd at HDAC2 [1] was 100 to 500 nM; at HDAC1 it was less than 100 nM. The residence time is 838 min at HDAC1 and 1360 min on HDAC2 [2].

With `CC(=O)N1C2CCC1CN(C(=O)Nc1cc(-c3ccc(F)cc3)ccc1N)C2` [Compound 116], the Kd at HDAC2 [1] and on HDAC1 was greater than 5000 nM in each case. The residence time at HDAC1 is 16 min; at HDAC2 [2] it was 30 min.

Turning to `COCCN1CCC2(CCN(C(=O)Nc3cc(-c4ccc(F)cc4)ccc3N)CC2)C1` [Compound 138], the dissociation constant Kd at HDAC2 [1] and on HDAC1 was 100 to 500 nM throughout. The residence time came to 724 min on HDAC1 and 2370 min on HDAC2 [2].

For the molecule `CC(C)(C)OC(=O)N1C2CCC1CN(C(=O)Nc1cc(-c3ccncc3)ccc1N)C2` [Compound 110], the dissociation constant (Kd) on HDAC2 [1] and on HDAC1 was greater than 5000 nM in each case.

`N#CC1CCc2nc(C(=O)Nc3cc(-c4ccc(F)cc4)ccc3N)cn2C1` (stereo not drawn) [Compound 128]: the Kd was 100 to 500 nM on HDAC2 [1] and less than 100 nM at HDAC1. Moreover, the figures for the residence time at HDAC1 and on HDAC2 [2] were 1730 min and 1500 min, respectively.

`CC(C)CC(=O)N1CC2CN(C(=O)Nc3cc(-c4ccc(F)cc4)ccc3N)CC2C1` (stereo not drawn) [Compound 160]: the dissociation constant (Kd) at HDAC2 [1] and at HDAC1 was 100 to 500 nM each time. Moreover, the residence time turned out to be 848 min at HDAC1 and 1730 min on HDAC2 [2].

In the case of `N#Cc1ccc(-c2ccc(N)c(NC(=O)N3Cc4ccncc4C3)c2)cc1` [Compound 149], the Kd at HDAC2 [1] and on HDAC1 was 100 to 500 nM each time. The residence time turned out to be 124 min at HDAC1 and 573 min on HDAC2 [2].

Consider `Nc1ccc(-c2ccc(F)cc2)cc1NC(=O)N1CCC2(CCOCC2)C1` [Compound 172], for which the Kd on HDAC2 [1] and on HDAC1 was 100 to 500 nM in each case. The residence time on HDAC1 came to 299 min; at HDAC2 [2] it was 987 min.

On to `Nc1ccc(-c2ccc(F)cc2)cc1NC(=O)c1nc2c(s1)CCNC2` [Compound 175], for which the Kd at HDAC2 [1] and on HDAC1 was less than 100 nM throughout. In addition, the residence time on HDAC1 was 1170 min; at HDAC2 [2], 2710 min.

Regarding `Nc1ccc(-c2ccc(F)cc2)cc1NC(=O)N1CCC2(CC1)COC2` [Compound 127], the Kd on HDAC2 [1] is 100 to 500 nM; on HDAC1 it was less than 100 nM. For the same molecule, the residence time came out at 1520 min on HDAC1 and 2540 min at HDAC2 [2].

In the case of `CN1CC2CN(C(=O)Nc3cc(-c4ccncc4)ccc3N)CC2C1=O` (stereo not drawn) [Compound 115], at HDAC2 [1], the dissociation constant Kd is 500 to 5000 nM. Moreover, on HDAC1, the residence time is 98 min and the Kd lay in the range of 500 to 5000 nM.

As for `Nc1ccc(-c2ccc(F)cc2)cc1NC(=O)c1cn2c(n1)CNCC2` [Compound 122], the Kd on HDAC2 [1] is 100 to 500 nM; on HDAC1 it was less than 100 nM. Besides, the residence time on HDAC1 was 1480 min; at HDAC2 [2], 1950 min.

Consider `Nc1ccc(-c2ccc(C(F)(F)F)cc2F)cc1NC(=O)N1Cc2ccncc2C1` [Compound 132], for which the Kd on HDAC2 [1] and at HDAC1 was 500 to 5000 nM throughout. Besides, the residence time worked out at 47 min at HDAC1 and 111 min on HDAC2 [2].

With `CC(C)(C)OC(=O)N1C2CCC1CN(C(=O)Nc1cc(-c3ccncc3)ccc1N)C2` [Compound 106], the Kd on HDAC2 [1] and at HDAC1 was greater than 5000 nM in each case.

Consider `CNC(=O)N1CC2CN(C(=O)Nc3cc(-c4ccc(F)cc4)ccc3N)CC2C1` (stereo not drawn) [Compound 120], for which the Kd at HDAC2 [1] is 100 to 500 nM; at HDAC1, less than 100 nM. Further, the residence time at HDAC1 came to 1550 min; on HDAC2 [2] it was 2360 min.

For `Nc1ccc(-c2ccncc2)cc1NC(=O)N1CCC2(CCN(CCF)C2)CC1` [Compound 144], the dissociation constant (Kd) at HDAC2 [1] and at HDAC1 was 500 to 5000 nM each time. Besides, the residence time stood at 296 min at HDAC1 and 1490 min on HDAC2 [2].

As to `Nc1ccc(-c2ccc(OC(F)F)cc2)cc1NC(=O)N1Cc2ccncc2C1` [Compound 162], the Kd at HDAC2 [1] and on HDAC1 was less than 100 nM each time. Moreover, the residence time on HDAC1 is 946 min; at HDAC2 [2], 1340 min.

`Nc1ccc(-c2ccc(F)c(F)c2)cc1NC(=O)N1Cc2ccncc2C1` [Compound 135]: the Kd on HDAC2 [1] and on HDAC1 was 100 to 500 nM in each case. The residence time at HDAC1 amounted to 353 min; at HDAC2 [2] it was 1210 min.

For the molecule `CC(C)OC(=O)N1CC2CN(C(=O)Nc3cc(-c4ccc(F)cc4)ccc3N)CC2C1` (stereo not drawn) [Compound 156], the values for the Kd at HDAC2 [1] and at HDAC1 were 100 to 500 nM and less than 100 nM, respectively. Moreover, the figures for the residence time on HDAC1 and at HDAC2 [2] were 1200 min and 1800 min, respectively.

Consider `CC(=O)N1CC2CC1CN2C(=O)Nc1cc(-c2ccncc2)ccc1N` (stereo not drawn) [Compound 108], for which the Kd at HDAC2 [1] and on HDAC1 was greater than 5000 nM each time.

`CC(=O)N1C2CCC1CN(C(=O)Nc1cc(-c3ccncc3)ccc1N)C2` [Compound 109]: the Kd at HDAC2 [1] and at HDAC1 was greater than 5000 nM throughout.

As to `Nc1ccc(-c2ccc(F)c(Cl)c2)cc1NC(=O)N1Cc2ccncc2C1` [Compound 163], the Kd at HDAC2 [1] lay in the range of 500 to 5000 nM; at HDAC1, 100 to 500 nM.

Take `Cc1cc(F)ccc1-c1ccc(N)c(NC(=O)N2Cc3ccncc3C2)c1` [Compound 141]: the Kd at HDAC2 [1] was greater than 5000 nM. In addition, on HDAC1, the residence time worked out at 1350 min and the Kd is greater than 5000 nM.

In the case of `CC(=O)N1C2CCC1CN(C(=O)Nc1cc(-c3ccncc3)ccc1N)C2` [Compound 107], the dissociation constant (Kd) on HDAC2 [1] and on HDAC1 was greater than 5000 nM throughout.

With `CC(C)(C)OC(=O)N1CC2CC1CN2C(=O)Nc1cc(-c2ccncc2)ccc1N` (stereo not drawn) [Compound 104], the Kd on HDAC2 [1] and at HDAC1 was greater than 5000 nM in each case.

At HDAC1, `Nc1ccc(-c2ccncc2)cc1NC(=O)N1Cc2cncnc2C1` [Compound 100] gave a residence time of 470 min and a Kd of 100 to 500 nM.
